# Measured values taken from BindingDB's records for doi:10.7270/Q2736PC9 (Broad Institute, 2010).
# Biological target: T1, Alkanal monooxygenase alpha chain (Vibrio harveyi, UniProt P07740)
# T1 sequence (P07740 whole entry): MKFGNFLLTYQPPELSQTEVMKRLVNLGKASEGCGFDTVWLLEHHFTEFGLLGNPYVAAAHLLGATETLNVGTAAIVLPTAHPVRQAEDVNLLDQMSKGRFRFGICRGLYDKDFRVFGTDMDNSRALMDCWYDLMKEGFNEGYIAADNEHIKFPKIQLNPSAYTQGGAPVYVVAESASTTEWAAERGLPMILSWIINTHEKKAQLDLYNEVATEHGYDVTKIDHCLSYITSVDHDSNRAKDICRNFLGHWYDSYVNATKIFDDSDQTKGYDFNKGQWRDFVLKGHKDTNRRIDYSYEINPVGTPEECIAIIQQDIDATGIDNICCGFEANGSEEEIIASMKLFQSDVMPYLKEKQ
# Test: Vibrio harveyi growth inhibition, dose response, counter-screen for quorum sensing inhibitor project, absorbance (AID 434943)
row,Structure (SMILES),EC50 [µM]
1,Cn1cnc(S(=O)(=O)Nc2ccc(OC(F)(F)F)cc2)c1 [SMR000314513],> 160
2,CCCc1ccc(S(=O)(=O)N(C)S(=O)(=O)c2ccc(F)cc2)cc1 [N-(4-fluorophenyl)sulfonyl-N-methyl-4-propylbenzenesulfonamide],> 160
3,CN(C)S(=O)(=O)c1ccc(NC(=S)NC(=O)Cc2ccccc2)cc1 [N-[[4-(dimethylsulfamoyl)phenyl]carbamothioyl]-2-phenyl-ethanamide],> 160
4,COc1cc(NC(=O)CN2C(=O)NC(c3ccccc3)(c3ccccc3)C2=O)cc(OC)c1 [MLS001176525],> 160
5,CCc1ccc(S(=O)(=O)Nc2ccc(Br)cn2)cc1 [MLS001211346],> 160
6,C=Cn1c(C(=O)O)ccc1-c1ccc(CC)cc1,> 160
7,Cc1cccc(NS(=O)(=O)c2ccc(Oc3ccccc3)cc2)n1 [SMR000071466],> 160
